Experiments:
[1] = Solubility in D2O by 1H NMR; format: physicochemical; details: Me2SO2 internal standard, T = 21 °C
Procedure: The solubility of the complexes in D2O was assessed using ^1H NMR spectroscopy (see Table 1 and the Experimental Section for details). […] Data from the literature for the related nonfunctionalized complexes [2′,3′]CF3SO3 are compiled in Table 1 for comparison.[11] The octanol–water partition coefficients (Log Pow) were measured using a UV–vis method and fall within the −0.2 to +1.2 range (Table 1). […] For instance, Log Pow values of 1.07 and 0.65 are obtained for the geometric isomers [9]CF3SO3 and [10]CF3SO3, respectively.

[2] = system: Human Ovarian Carcinoma Cisplatin Resistant (A2780cisR) cell line; assay: MTT cytotoxicity, A2780cisR; format: cell-based; details: 72 h exposure, mean ± SD
Description: Human ovarian carcinoma (A2780 and A2780cisR) cell lines were obtained from the European Collection of Cell Cultures. The Human Embryonic Kidney 293T (HEK 293T) cell line was obtained from the ATCC (Sigma, Buchs, Switzerland). Penicillin–streptomycin, RPMI 1640 GlutaMAX (where RPMI = Roswell Park Memorial Institute), and DMEM GlutaMAX media (where DMEM = Dulbecco’s modified Eagle medium) were obtained from Life Technologies, and fetal bovine serum (FBS) was obtained from Sigma. The cells were cultured in RPMI 1640 GlutaMAX (A2780 and A2780cisR) and DMEM GlutaMAX (HEK 293T) media containing 10% heat-inactivated FBS and 1% penicillin–streptomycin at 37 °C and CO2 (5%). The A2780cisR cell line was routinely treated with cisplatin (2 μM) in the media to maintain cisplatin resistance. The cytotoxicity was determined using the 3-(4,5-dimethyl-2-thiazolyl)-2,5-diphenyl-2H-tetrazolium bromide (MTT) assay.[42] Cells were seeded in flat-bottomed 96-well plates as a suspension in a prepared medium (100 μL aliquots and approximately 4300 cells/well) and preincubated for 24 h. Stock solutions of compounds were prepared in DMSO and were diluted in the medium. The solutions were sequentially diluted to give a final DMSO concentration of 0.5% and a final compound concentration range of 0–200 μM. Cisplatin was tested as a positive (0–100 μM) control. The compounds were placed in the preincubated 96-well plates in 100 μL aliquots, and the plates were incubated for a further 72 h. MTT (20 μL, 5 mg/mL in Dulbecco’s phosphate buffered saline) was placed in the cells, and the plates were incubated for a further 4 h. The culture medium was aspirated, and the purple formazan crystals, formed by the mitochondrial dehydrogenase activity of vital cells, were dissolved in DMSO (100 μL/well). The absorbance of the resulting solutions, directly proportional to the number of surviving cells, was quantified at 590 nm using a SpectroMax M5e multimode microplate reader (using SoftMax Pro software, version 6.2.2). The percentage of surviving cells was calculated from the absorbance of wells corresponding to the untreated control cells. The reported IC50 values are based on the means from two independent experiments, each comprising four tests per concentration level.

[3] = system: guanosine 5′-monophosphate (disodium salt, Na2[GMP]); assay: Reaction with model nucleotide GMP (mass spectrometry); details: D2O/CD3OD, 1 equiv Na2[GMP], 24 h at 37 °C
Procedure: The ability of [4]CF3SO3 and [9]CF3SO3 to interact with natural DNA was studied using the ethidium bromide (EB) exchange test (Figure 6), with the concentration of the complexes beingin the 1.5–124 μM range for [4]CF3SO3 and 1.4–135 μM for [9]CF3SO3. Blank experiments were carried out with the two bioactive molecules and also with DMSO to check for solvent/dilution effects. […] However, EB exchange titrations are suitable to recognize fast noncovalent binding events, but not subsequent slow covalent binding. Therefore, since chlorambucil is a DNA-alkylating agent, we studied the possible reaction of [9]CF3SO3 with the nucleotide guanosine 5′-monophosphate (disodium salt, Na2[GMP]; see Figure 4) as a model for DNA binding. Complex [9]CF3SO3 was incubated with a D2O/CD3OD mixture containing GMP for 24 h at 37 °C.
In order to analyze the interaction with a model nucleotide, a freshly prepared solution of [9]CF3SO3 (2 mg) in D2O/CD3OD (5/3 v/v) was treated with 1 equiv of anhydrous Na2[GMP]. The resulting mixture was maintained at 37 °C for 24 h, and then the final solution was filtered in order to remove some solid and analyzed by mass spectrometry. HPLC-MS(+): m/z found 1087.2451 [9^GMP + Na]^+, calcd for C47H53Fe2N8NaO12P 1087.2117; m/z found 555.0666 [9^GMP + 2Na]^2+, calcd for C47H53Fe2N8Na2O12P 555.1008. The isotopic patterns fit well the calculated patterns.

COX-2 enzyme = biological target: T1, COX-2 enzyme (Homo sapiens, UniProt P35354); assay: COX-2 enzyme inhibition assay (fluorimetric); format: biochemical; details: residual enzyme activity, 25 °C, pH 8, mean ± SD
T1 construct: purchased Cayman Chemical Company
T1 sequence (P35354 18-604): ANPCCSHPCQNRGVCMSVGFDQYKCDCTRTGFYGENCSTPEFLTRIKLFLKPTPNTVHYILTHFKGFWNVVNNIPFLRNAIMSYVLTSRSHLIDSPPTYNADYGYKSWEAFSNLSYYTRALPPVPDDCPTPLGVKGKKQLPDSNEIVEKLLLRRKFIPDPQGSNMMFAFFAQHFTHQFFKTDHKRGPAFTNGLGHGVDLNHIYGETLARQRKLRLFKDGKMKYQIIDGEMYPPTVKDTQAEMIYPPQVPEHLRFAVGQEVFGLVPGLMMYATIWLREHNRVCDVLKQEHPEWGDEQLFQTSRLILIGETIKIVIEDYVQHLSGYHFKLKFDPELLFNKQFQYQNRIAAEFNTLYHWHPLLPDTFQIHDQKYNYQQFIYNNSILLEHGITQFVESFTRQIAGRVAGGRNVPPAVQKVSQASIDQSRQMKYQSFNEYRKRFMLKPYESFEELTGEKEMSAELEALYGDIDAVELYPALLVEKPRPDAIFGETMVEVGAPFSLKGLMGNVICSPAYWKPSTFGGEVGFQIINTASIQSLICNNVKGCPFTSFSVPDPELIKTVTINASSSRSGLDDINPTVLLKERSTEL
Procedure: Next, the possible role of the bioactive fragment in the complexes was studied.
The IC50 value was obtained using GraphPad Prism 7 software. All of the inhibitor assays were performed at least in triplicate.

Row | solubility [1] | IC50 (COX-2 enzyme) [µM] | Substance | IC50 [2] [µM] | conversion into the neutral GMP adduct 9^GMP [3]
1 | <1 × 10^–4 mol L^–1 |  | [Fe2Cp2(CO)(μ-CO){μ-η^1:η^3-Cγ(3-C6H4NHC(=O)(CH2)3C6H4N(CH2CH2Cl)2)CβHCαNMe2}]CF3SO3 [[9]CF3SO3] | 3.8 ± 0.3 | almost complete conversion
2 | <1 × 10^–4 mol L^–1 | 30 ± 3 | [Fe2Cp2(CO)(μ-CO){μ-η^1:η^3-Cγ(3-C6H4OC(=O)C6H4OC(=O)Me)CβHCαNMe(Xyl)}]CF3SO3 [[4]CF3SO3] | 2.6 ± 0.4 | 

Source: paper PMC8397425, “A Strategy to Conjugate Bioactive Fragments to Cytotoxic Diiron Bis(cyclopentadienyl) Complexes” (Organometallics, 2021)
